Data reported in patent US8703768B2, “Nitrogen containing heteroaryl compounds” (Hoffmann-La Roche Inc., priority 2010, dated 2014).

molecular target: human PDE10A (Homo sapiens (Human), UniProt Q9Y233); experiment: human PDE10A full length Scintillation Proximity Assay (SPA); type: biochemical; details: 50 nM cGMP and 50 nM [3H]-cGMP, 20 minutes at room temperature; read-out: PDE10A inhibition IC50
Protocol: The following test was carried out in order to determine the activity of the compounds of the present invention.
The human PDE10A full length assay was performed in 96-well micro titer plates. […] Non-specific activity was tested without the enzyme. The reaction was initiated by the addition of the substrate solution (cGMP and [^3H]-cGMP) and allowed to progress for 20 minutes at room temperature. The reaction was terminated by adding 25 μl of YSi-SPA scintillation beads (GE Healthcare, cat. # RPNQ0150) in 18 mM zinc sulphate solution (stop reagent). After 1 h under shaking, the plate was centrifuged one minute at 170 g to allow beads to settle. Afterwards, radioactive counts were measured on a Perkin Elmer TopCount Scintillation plate reader.

Sequence of human PDE10A (Q9Y233 other isoform, or with tags, fused parts or gaps): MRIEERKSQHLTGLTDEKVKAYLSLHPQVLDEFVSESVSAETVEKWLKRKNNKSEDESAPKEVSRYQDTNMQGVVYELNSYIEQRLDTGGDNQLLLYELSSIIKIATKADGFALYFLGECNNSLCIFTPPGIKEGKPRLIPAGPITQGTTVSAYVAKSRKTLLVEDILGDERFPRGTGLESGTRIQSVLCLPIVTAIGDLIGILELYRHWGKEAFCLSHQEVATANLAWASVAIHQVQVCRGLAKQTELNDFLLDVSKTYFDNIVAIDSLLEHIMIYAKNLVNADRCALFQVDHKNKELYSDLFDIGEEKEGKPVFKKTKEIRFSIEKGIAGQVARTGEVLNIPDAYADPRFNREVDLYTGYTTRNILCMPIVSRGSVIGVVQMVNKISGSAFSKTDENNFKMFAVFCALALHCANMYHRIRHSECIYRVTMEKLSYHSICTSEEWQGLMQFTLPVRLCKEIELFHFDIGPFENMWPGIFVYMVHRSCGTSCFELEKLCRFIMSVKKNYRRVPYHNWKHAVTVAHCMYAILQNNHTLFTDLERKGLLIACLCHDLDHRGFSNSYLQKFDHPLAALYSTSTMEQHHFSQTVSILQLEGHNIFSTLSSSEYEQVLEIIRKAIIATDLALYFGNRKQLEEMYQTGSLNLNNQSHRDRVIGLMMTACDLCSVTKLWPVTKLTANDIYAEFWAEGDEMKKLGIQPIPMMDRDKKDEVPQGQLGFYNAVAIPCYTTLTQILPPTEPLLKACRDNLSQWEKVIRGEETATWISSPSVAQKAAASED

| Structure (SMILES) | IC50 [nM] |
| --- | --- |
| CN(C(=O)c1nn(C)cc1NC(=O)c1nc(C2CC2)ccc1Nc1cncnc1)C1CCCCC1 [Example 17, 6-Cyclopropyl-3-(pyrimidin-5-ylamino)-pyridine-2-carboxylic acid [3-(cyclohexyl-methyl-carbamoyl)-1-methyl-1H-pyrazol-4-yl]-amide] | 12.6 |
| CNC(=O)c1c(NC(=O)c2nc(C3CC3)cnc2Nc2cncnc2)cnn1C1CCOC1 (centres unmarked) [Example 250, 6-Cyclopropyl-3-(pyrimidin-5-ylamino)-pyrazine-2-carboxylic acid [5-methylcarbamoyl-1-(tetrahydro-furan-3-yl)-1H-pyrazol-4-yl]-amide] | 15.9 |
| CNC(=O)c1c(NC(=O)c2nc(N3CCOCC3)cnc2Nc2cncnc2)cnn1C [Example 297, 6-Morpholin-4-yl-3-(pyrimidin-5-ylamino)-pyrazine-2-carboxylic acid (1-methyl-5-methylcarbamoyl-1H-pyrazol-4-yl)-amide] | 4.1 |
| CN(C)C(=O)c1ncncc1NC(=O)c1nc(C2CC2)cnc1Nc1cncnc1 [Example 205, 5-{[6-Cyclopropyl-3-(pyrimidin-5-ylamino)-pyrazine-2-carbonyl]-amino}-pyrimidine-4-carboxylic acid dimethylamide] | 90.1 |
| CN(C)C(=O)c1nn(-c2ccccn2)cc1NC(=O)c1nc(C2CC2)ccc1Nc1cncnc1 [Example 74, 6-Cyclopropyl-3-(pyrimidin-5-ylamino)-pyridine-2-carboxylic acid (3-dimethylcarbamoyl-1-pyridin-2-yl-1H-pyrazol-4-yl)-amide] | 7.3 |
| CNC(=O)c1nn(C)cc1NC(=O)c1nc(C2CC2)cnc1Nc1cncnc1 [Example 5, 6-Cyclopropyl-3-(pyrimidin-5-ylamino)-pyrazine-2-carboxylic acid (1-methyl-3-methylcarbamoyl-1H-pyrazol-4-yl)-amide] | 5.2 |
| CC1(NC(=O)c2ccncc2NC(=O)c2nc(C3CC3)cnc2Nc2cncnc2)COC1 [Example 121, 6-Cyclopropyl-3-(pyrimidin-5-ylamino)-pyrazine-2-carboxylic acid [4-(3-methyl-oxetan-3-ylcarbamoyl)-pyridin-3-yl]-amide] | 5.8 |
| CC(C)(O)CNC(=O)c1c(NC(=O)c2nc(C3CC3)cnc2Nc2cncnc2)cnn1CC1CCCO1 (centres unmarked) [Example 244, 6-Cyclopropyl-3-(pyrimidin-5-ylamino)-pyrazine-2-carboxylic acid [5-(2-hydroxy-2-methyl-propylcarbamoyl)-1-(tetrahydro-furan-2-ylmethyl)-1H-pyrazol-4-yl]-amide] | 0.2 |
| CNC(=O)c1cc(C(F)(F)F)ccc1NC(=O)c1nc(C2CC2)cnc1Nc1cncnc1 [Example 296, 6-Cyclopropyl-3-(pyrimidin-5-ylamino)-pyrazine-2-carboxylic acid (2-methylcarbamoyl-4-trifluoromethyl-phenyl)-amide] | 3.9 |
| CC(C)c1ccc(NC(=O)c2nc(C3CC3)cnc2Nc2cncnc2)c(C(=O)NCC(C)(C)O)c1 [Example 207, 6-Cyclopropyl-3-(pyrimidin-5-ylamino)-pyrazine-2-carboxylic acid [2-(2-hydroxy-2-methyl-propylcarbamoyl)-4-isopropyl-phenyl]-amide] | 1.1 |
| COC(C)(C)CNC(=O)c1ccncc1NC(=O)c1nc(C2CC2)cnc1Nc1cncnc1 [Example 113, 6-Cyclopropyl-3-(pyrimidin-5-ylamino)-pyrazine-2-carboxylic acid [4-(2-methoxy-2-methyl-propylcarbamoyl)-pyridin-3-yl]-amide] | 1.6 |
| CN(CC(C)(C)O)C(=O)c1nn(C)cc1NC(=O)c1nc(C2CC2)cnc1Nc1cncnc1 [Example 111, 6-Cyclopropyl-N-(3-((2-hydroxy-2-methylpropyl)(methyl)carbamoyl)-1-methyl-1H-pyrazol-4-yl)-3-(pyrimidin-5-ylamino)pyrazine-2-carboxamide] | 15 |
| CNC(=O)c1nn(C)cc1NC(=O)c1nc(C(C)C)ncc1Nc1cncnc1 [Example 75, 2-Isopropyl-5-(pyrimidin-5-ylamino)-pyrimidine-4-carboxylic acid (1-methyl-3-methylcarbamoyl-1H-pyrazol-4-yl)-amide] | 8.8 |
| CNC(=O)c1nn(C)cc1NC(=O)c1nc(NCCOC)ncc1Nc1cncnc1 [Example 126, 2-(2-Methoxy-ethylamino)-5-(pyrimidin-5-ylamino)-pyrimidine-4-carboxylic acid (1-methyl-3-methylcarbamoyl-1H-pyrazol-4-yl)-amide] | 122 |
| Cc1ncc(NC(=O)c2nc(C3CC3)cnc2Nc2cncnc2)c(C(=O)NCC(C)(C)O)n1 [Example 281, 5-{[6-Cyclopropyl-3-(pyrimidin-5-ylamino)-pyrazine-2-carbonyl]-amino}-2-methyl-pyrimidine-4-carboxylic acid (2-hydroxy-2-methyl-propyl)-amide] | 0.6 |
| CN(CCO)C(=O)c1c(NC(=O)c2nc(C3CC3)cnc2Nc2cncnc2)cnn1C [Example 226, 6-Cyclopropyl-3-(pyrimidin-5-ylamino)-pyrazine-2-carboxylic acid [5-[(2-hydroxy-ethyl)-methyl-carbamoyl]-1-methyl-1H-pyrazol-4-yl]-amide] | 54.3 |
| CC1CCCN1C(=O)c1ncccc1NC(=O)c1nc(C2CC2)cnc1Nc1cncnc1 (centres unmarked) [Example 252, 6-Cyclopropyl-3-(pyrimidin-5-ylamino)-pyrazine-2-carboxylic acid [2-(2-methyl-pyrrolidine-1-carbonyl)-pyridin-3-yl]-amide] | 5.8 |
| CN(C)C(=O)c1nc(C2CC2)ccc1NC(=O)c1nc(C2CC2)cnc1Nc1cncnc1 [Example 265, 6-Cyclopropyl-3-(pyrimidin-5-ylamino)-pyrazine-2-carboxylic acid (6-cyclopropyl-2-dimethylcarbamoyl-pyridin-3-yl)-amide] | 20.6 |
| CC(C)(O)CNC(=O)c1cc(Cl)ncc1NC(=O)c1nc(C2CC2)cnc1Nc1cncnc1 [Example 260, 6-Cyclopropyl-3-(pyrimidin-5-ylamino)-pyrazine-2-carboxylic acid [6-chloro-4-(2-hydroxy-2-methyl-propylcarbamoyl)-pyridin-3-yl]-amide] | 1.6 |
| CNC(=O)c1nn(C)cc1NC(=O)c1nc(C2CCOC2)ccc1Nc1cncnc1 (centres unmarked) [Example 127, 3-(Pyrimidin-5-ylamino)-6-(tetrahydro-furan-3-yl)-pyridine-2-carboxylic acid (1-methyl-3-methylcarbamoyl-1H-pyrazol-4-yl)-amide] | 8.5 |
| Cn1cc(NC(=O)c2nc(C3CC3)ccc2Nc2cncnc2)c(C(=O)N2CCCCC2)n1 [Example 16, 6-Cyclopropyl-3-(pyrimidin-5-ylamino)-pyridine-2-carboxylic acid [1-methyl-3-(piperidine-1-carbonyl)-1H-pyrazol-4-yl]-amide] | 7.6 |
| O=C(Nc1cc(F)cc(F)c1C(=O)N1CCC1)c1nc(C2CC2)cnc1Nc1cncnc1 [Example 323, 6-Cyclopropyl-3-(pyrimidin-5-ylamino)-pyrazine-2-carboxylic acid [2-(azetidine-1-carbonyl)-3,5-difluoro-phenyl]-amide] | 35.9 |
| O=C(NCC1CCCO1)c1ccncc1NC(=O)c1nc(C2CC2)cnc1Nc1cncnc1 (centres unmarked) [Example 101, 6-Cyclopropyl-3-(pyrimidin-5-ylamino)-pyrazine-2-carboxylic acid {4-[(tetrahydro-furan-2-ylmethyl)-carbamoyl]-pyridin-3-yl}-amide] | 1.5 |
